Results on three molecules are retold here after patent publication US11254635B2, “Emodin succinyl ester compound, preparation method therefor and application thereof” (JIANGSU KANION PHARMACEUTICAL CO., LTD., priority 2017, dated 2022).

For series [1] the following is noted: cited from earlier work.
Series [2] has as its system skin wound of mice with type 1 diabetes. As to the kind of experiment: Wound healing of mice with diabetes (STZ model, 5 mm skin punch wound). The series is classed as in vivo, Kunming mice. The following applies: 100 μg/mL oil, 10 μL dripped on the wound once a day, 14 days; vs diabetes model, solvent control and emodin groups. As to the method: SPF-grade male Kunming mice (18-20 g) were adaptively fed with ordinary maintenance feed for 3-5 days, weighed and randomly divided into a blank control group (Control) and a diabetes model group. Mice in the diabetes model group were administrated with high-dose STZ (streptozotocin, 180 mg/kg) through intraperitoneal injection and fasting blood glucose was measured after one week. The mice successfully modeled were randomly divided into 5 groups, namely, the diabetes model group (Model), the solvent control group (Solvent), the positive drug (recombinant human epidermal growth factor) control group (EGF), the emodin group (DHS), and the emodin succinyl ethyl ester group (DHS-YSW).
Animals in each group were anesthetized with sodium pentobarbital (1%) and shaved on the back. A 5 mm skin punch was used to establish a 5 mm wound model at the highest part of the back. The Control group and the Model group were not treated with any drugs. The solvent control group was dripped with 10 μL of sterile vegetable oil. The positive drug group was dripped with 10 μL of recombinant human epidermal factor solution (2000 IU/mL) each day. The other groups were dripped on the wound with 10 μL of a corresponding drug, once a day for 14 consecutive days. […]
The experimental data were expressed as mean±standard error. […] The experimental results were all analyzed and graphed using GraphpadPrism6.0.

Series [3] deals with rats with mixed hyperlipidemia. The experiment in a line: Blood lipid levels in rats with mixed hyperlipidemia (high-fat feed), Example 6. Type of series: in vivo. Particulars: two weeks; for effect on TG in serum: high dose of the ester; for effect on TG in serum / effect on LDL-C in serum / effect on TC in serum: atorvastatin calcium 10 mg/kg, vs hyperlipidemia group; for effect on LDL-C in serum / effect on TC in serum: low, medium, high doses of the ester; for LDL-C / TC / TG: serum, high-fat diet. The procedure: (§1) Feeding rats with high-fat feed containing cholesterol, sucrose, lard, and sodium cholate can form a rat model of lipid metabolism disorders, and then the rats are administrated with drug, detect the effect of the test object on hyperlipidemia, and determine the effect of the test object on the lipid absorption, lipoprotein formation, lipid degradation or excretion in rats.
(§2) Second random grouping: After the establishment of the rat hyperlipidemia model, the blood lipids of the rats were measured, and rats in the hyperlipidemia model group were randomly divided into five groups, 11 rats in the positive drug group, 10 rats in each of the other groups. The five groups were the hyperlipidemia model group, the low-dose test object group (emodin succinyl ethyl ester in a dose of 10 mg/kg·d^−1), the medium-dose test object group (emodin succinyl ethyl ester in a dose of 20 mg/kg·d^−1), the high-dose test object group (emodin succinyl ethyl ester in a dose of 40 mg/kg·d^−1), and the positive control drug group (Atorvastatin calcium group in a dose of 10 mg/kg·d^−1), respectively.
In the experimental groups, rats in the blank control group were fed with maintenance feed and the remaining 5 groups were fed with high-fat diet. After 2 weeks, the levels of TG, TC, LDL-C and HDL-C in the serum of the rats were measured. The rats were weighed once a week.
(§3) The rats in the successfully grouped high-dose test object, medium-dose, and low-dose groups and positive control drug group (atorvastatin calcium group) were intragastrically administered daily. Rats in the blank control group and the hyperlipidemia model group were given corresponding doses of lysozyme.
(§4) Feeding conditions remained unchanged. The rats were weighed once a week. Blood were collected at the tip of the tail two weeks after drug administration and livers were taken, to determine the levels of TC, TG, LDL-C, and HDL-C in serum of the rats and the levels of TC and TG in the liver, and then the effect of the test object on the TC, TG, LDL-C and HDL-C in serum of the rats and the TC and TG in liver were observed.

Series [4] has as its system rats with mixed hyperlipidemia. As to the kind of experiment: Comparison of emodin succinyl ethyl ester and emodin in lowering blood lipid levels in rats with mixed hyperlipidemia, Example 7. The series is classed as in vivo. The procedure:
Feeding rats with high-fat feed containing cholesterol, sucrose, lard and sodium cholate can form a rat model of lipid metabolism disorders and then the rats are administered with a drug, detect the effects of the test object on hyperlipidemia, and determine the effect of the test object on the lipid absorption, lipoprotein formation, lipid degradation or excretion in rats.
Second random grouping: After the establishment of the rat hyperlipidemia model, the blood lipids of the rats were measured, and rats in the hyperlipidemia model group were randomly divided into four groups, 11 rats in the positive drug group, 10 rats in each of the other groups. The four groups were the hyperlipidemia model group, the low-dose test object (emodin succinyl ethyl ester in a dose of 20 mg/kg·d^−1) group, the emodin (20 mg/kg·d^−1) group, and the positive control drug (Atorvastatin calcium group in a dose of 10 mg/kg·d^−1) group, respectively.
In the experimental groups, rats in the blank control group were fed with maintenance feed and the remaining 4 groups were fed with a high-fat diet. After 2 weeks, the levels of TG, TC, LDL-C and HDL-C in the serum of the rats were measured. The rats were weighed once a week.
The rats in the successfully grouped test object (emodin succinyl ethyl ester) group, emodin group and positive control drug group (atorvastatin calcium group) were intragastrically administered daily. Rats in the blank control group and the hyperlipidemia model group were given corresponding doses of lysozyme.
Feeding conditions remained unchanged. The rats were weighed once a week. Blood were collected at the tip of the tail two weeks after drug administration. The effect of the test object on the TC, TG, LDL-C and HDL-C in serum of the rats were observed.

The test system of series [5] is rats with mixed hyperlipidemia. As to the kind of experiment: Levels of TC and TG in the liver of rats with mixed hyperlipidemia, Example 6. The series is classed as in vivo. Particulars: two weeks; for TC / TG: liver, high-fat diet; for effect on TC in liver / effect on TG in liver: low, medium, high doses of the ester, atorvastatin calcium 10 mg/kg, vs hyperlipidemia model group. The procedure: as §1, §2, §3, §4
(3) TC and TG in liver, measured after sampling

The subject of series [6] is oleic acid-induced hyperlipemia cells (HepG2 cell line). The experiment in a line: Levels of TC and TG in oleic acid-induced hyperlipemia cells. Particulars: for TC / TG: HepG2, oleic acid 200 μmol/L, 24 hours. Type of series: cell-based. As to the method:
Oleic acid is added to culture HepG2 cells to induce a hyperlipemia cell model, and then the cells are given a test drug, the effect of the test object on the lipid level of the cells is detected.
When the degree of cell fusion reached about 80%, except for the normal group, cells in other groups were all added with oleic acid at a dose of 200 μmol/L, and then the cells were divided into five groups: the normal group, the oleic acid-induced hyperlipemia group, low-dose emodin succinyl ethyl ester group (5 μmol/L), the medium-dose emodin succinyl ethyl ester group (10 μmol/L) and the high dose emodin succinyl ethyl ester group (20 μmol/L). 24 hours later, the levels of TC and TG were measured.
The cells were digested with 0.25% trypsin to prepare a cell suspension; the cell suspension was centrifuged at 1000 rpm for 10 minutes; the supernatant was discarded, and the cell pellet was collected, washed with PBS once or twice, and configured at 1000 rpm for 10 minutes; the supernatant was discarded, and the cell pellet was collected.
200 μl of 2% TritonX-100 was added for lysis for 30 minutes.
First, the protein concentration of the sample was determined using the Beyotime kit. Then, 250 μl of working solution was added to a 96-well plate, 2.5 μl of distilled water was added to the blank wells, 2.5 μl of calibration solution was added to the calibration wells, 2.5 μl of sample was added to the sample wells, and they were all incubated for 10 minutes at 37° C. The OD values were measured by using a 510 nm microplate reader.
3.2.4 Calculation Formulas: Cholesterol content=(sample OD value−blank OD value)/(calibrated OD value−blank OD value)*5.17/protein concentration of the sample to be tested Triglyceride content=(sample OD value−blank OD value)/(calibrated OD value−blank OD value)*2.26/protein concentration of the sample to be tested.

The mark [7] stands for this setting: 10 mg/kg intragastrically once a day.
The mark [8] stands for this setting: 20 mg/kg intragastrically once a day.
Setting [9] is: 40 mg/kg intragastrically once a day.
Where [10] appears, read: 20 mg/kg·d^−1, two weeks, vs hyperlipidemia group.
[11] abbreviates: 20 mg/kg·d^−1 vs equivalent dose of emodin (20 mg/kg·d^−1), two weeks.
The mark [12] stands for this setting: low, medium and high doses (5, 10, 20 μmol/L), vs oleic acid group.

SMILES strings stand for the structures. Where two headings read alike, the source gives them in different places.

Consider `Cc1cc(O)c2c(c1)C(=O)c1cc(O)cc(O)c1C2=O` [emodin, 1,3,8-trihydroxy-6-methylanthraquinone], for which the absolute bioavailability in series [1] (female SD rats) was 5%; in series [1] (male SD rats), 7.5%.

Turning to `CCOC(=O)CCC(=O)Oc1cc(O)c2c(c1)C(=O)c1cc(C)cc(O)c1C2=O` [emodin succinyl ethyl ester, 1,8-dihydroxy-3-succinic acid monoethyl group-6-Methylanthraquinone], the wound healing speed result in series [2] is reported as “significantly faster wound healing speed”. In series [3], the “effect on TG in serum” value is reported as “significantly reduce”. For the same molecule, the “effect on LDL-C in serum” value in series [3] and in series [4] (setting [10]) was “significantly reduce” in each case. The “effect on TC in serum” value in series [3] and in series [4] (setting [10]) was “significantly reduce” throughout. Besides, the LDL-C in series [3] (setting [7]) is on record as 0.17 ± 0.08 mmol/L; in series [3] (setting [8]), 0.15 ± 0.05 mmol/L; in series [3] (setting [9]) it was 0.18 ± 0.03 mmol/L. Moreover, the TC in series [3] (setting [7]) stood at 2.60 ± 0.74 mmol/L; in series [3] (setting [8]), 2.36 ± 0.78 mmol/L; in series [3] (setting [9]), 2.88 ± 0.34 mmol/L; in series [5] (setting [7]) it was 0.069 ± 0.010 mmol/L; in series [5] (setting [8]), 0.078 ± 0.010 mmol/L; in series [5] (setting [9]), 0.059 ± 0.005 mmol/L. In addition, the TC in series [6] (5 μmol/L) is given as 0.730 ± 0.168 mmol/L; in series [6] (10 μmol/L), 0.506 ± 0.197^###& mmol/L; in series [6] (20 μmol/L) it was 0.537 ± 0.145^###&& mmol/L. The TG was 3.98 ± 0.63 mmol/L in series [3] (setting [7]); 4.12 ± 0.37 mmol/L in series [3] (setting [8]); 3.23 ± 0.12 mmol/L in series [3] (setting [9]); 0.105 ± 0.023 mmol/L in series [5] (setting [7]); 0.127 ± 0.016 mmol/L in series [5] (setting [8]); 0.079 ± 0.011 mmol/L in series [5] (setting [9]). In addition, the results for the TG in series [6] (5 μmol/L), in series [6] (10 μmol/L) and in series [6] (20 μmol/L) were 0.610 ± 0.308 mmol/L, 0.487 ± 0.347 mmol/L and 0.414 ± 0.209 mmol/L, respectively. Further, the “lowering LDL-C in serum compared with emodin” value in series [4] (setting [11]) is “better effects”. Further, the “lowering TC in serum compared with emodin” value in series [4] (setting [11]) is “better effects”. Also, the “effect on TC in liver” value in series [5] is on record as “reduce”. In addition, in series [5], the “effect on TG in liver” value was “reduce”. Further, the “effect on level of TC of cells” value in series [6] (setting [12]) is listed as “significantly reduce”. In addition, the “effect on level of TG of cells” value in series [6] (setting [12]) is given as “significantly reduce”.

With `CC(C)c1c(C(=O)Nc2ccccc2)c(-c2ccccc2)c(-c2ccc(F)cc2)n1CC[C@@H](O)C[C@@H](O)CC(=O)[O-].CC(C)c1c(C(=O)Nc2ccccc2)c(-c2ccccc2)c(-c2ccc(F)cc2)n1CC[C@@H](O)C[C@@H](O)CC(=O)[O-].[Ca+2]` [Atorvastatin calcium, reference compound], in series [3], the “effect on TG in serum” value is “significantly reduce”, the “effect on LDL-C in serum” value is listed as “significantly reduce” and the “effect on TC in serum” value is “significantly reduce”. Moreover, in series [3] (setting [7]), the LDL-C is 0.13 ± 0.03 mmol/L, the TC is listed as 2.82 ± 1.02 mmol/L and the TG worked out at 2.94 ± 0.20 mmol/L. For the same molecule, in series [5] (setting [7]), the TC was 0.066 ± 0.004 mmol/L and the TG was 0.090 ± 0.008 mmol/L. Moreover, in series [5], the “effect on TC in liver” value is on record as “reduce” and the “effect on TG in liver” value is reported as “reduce”.
